Results taken from ChEMBL document CHEMBL5346961, “Discovery and Evaluation of 3-Quinoxalin Urea Derivatives as Potent, Selective, and Orally Available ATM Inhibitors Combined with Chemotherapy for the Treatment of Cancer via Goal-Oriented Molecule Generation and Virtual Screening” (J Med Chem, 2023).

Key:
[1] = Metabolic stability in human liver microsomes assessed as clearance at 1 uM in presence of NADPH-regenerating system by LC-MS/MS analysis; assay type: ADME, Microsome
[2] = biological target: T1, Serine-protein kinase ATM (Homo sapiens, UniProt Q13315); experiment: Inhibition of ATM (unknown origin) assessed as remaining activity at 0.01 uM preincubated with compound for 30 mins followed by substrate addition and measured after 2 hrs by HTRF method relative to control; settings: time 2.5 hrs
HCT-116 = experiment: Inhibition of colony formation in human HCT-116 cells at 0.01 uM preincubated for 1 hr followed by exposure to 2 Gy gamma irradiation and measured after 1 week by crystal violet staining based […] assay relative to control; assay type: functional; settings: HCT-116, light or radiation study, time 169 hrs
[3] = biological target: T1, Serine-protein kinase ATM; experiment: Inhibition of ATM (unknown origin) assessed as remaining activity at 1 uM preincubated with compound for 30 mins followed by substrate addition and measured after 2 hrs by HTRF method relative to control; settings: time 2.5 hrs
[4] = Metabolic stability in human liver microsomes assessed as half life at 1 uM in presence of NADPH-regenerating system by LC-MS/MS analysis; assay type: ADME, Microsome
[5] = biological target: T1, Serine-protein kinase ATM; experiment: Inhibition of ATM (unknown origin) preincubated with compound for 30 mins followed by substrate addition and measured after 2 hrs by HTRF method
[6] = biological target: Serine/threonine-protein kinase ATR (Homo sapiens, UniProt Q13535); experiment: Inhibition of ATR (unknown origin) assessed as remaining activity at 1 uM in presence of [gamma33P-ATP] by radiometric assay

T1 sequence (Q13315 whole entry): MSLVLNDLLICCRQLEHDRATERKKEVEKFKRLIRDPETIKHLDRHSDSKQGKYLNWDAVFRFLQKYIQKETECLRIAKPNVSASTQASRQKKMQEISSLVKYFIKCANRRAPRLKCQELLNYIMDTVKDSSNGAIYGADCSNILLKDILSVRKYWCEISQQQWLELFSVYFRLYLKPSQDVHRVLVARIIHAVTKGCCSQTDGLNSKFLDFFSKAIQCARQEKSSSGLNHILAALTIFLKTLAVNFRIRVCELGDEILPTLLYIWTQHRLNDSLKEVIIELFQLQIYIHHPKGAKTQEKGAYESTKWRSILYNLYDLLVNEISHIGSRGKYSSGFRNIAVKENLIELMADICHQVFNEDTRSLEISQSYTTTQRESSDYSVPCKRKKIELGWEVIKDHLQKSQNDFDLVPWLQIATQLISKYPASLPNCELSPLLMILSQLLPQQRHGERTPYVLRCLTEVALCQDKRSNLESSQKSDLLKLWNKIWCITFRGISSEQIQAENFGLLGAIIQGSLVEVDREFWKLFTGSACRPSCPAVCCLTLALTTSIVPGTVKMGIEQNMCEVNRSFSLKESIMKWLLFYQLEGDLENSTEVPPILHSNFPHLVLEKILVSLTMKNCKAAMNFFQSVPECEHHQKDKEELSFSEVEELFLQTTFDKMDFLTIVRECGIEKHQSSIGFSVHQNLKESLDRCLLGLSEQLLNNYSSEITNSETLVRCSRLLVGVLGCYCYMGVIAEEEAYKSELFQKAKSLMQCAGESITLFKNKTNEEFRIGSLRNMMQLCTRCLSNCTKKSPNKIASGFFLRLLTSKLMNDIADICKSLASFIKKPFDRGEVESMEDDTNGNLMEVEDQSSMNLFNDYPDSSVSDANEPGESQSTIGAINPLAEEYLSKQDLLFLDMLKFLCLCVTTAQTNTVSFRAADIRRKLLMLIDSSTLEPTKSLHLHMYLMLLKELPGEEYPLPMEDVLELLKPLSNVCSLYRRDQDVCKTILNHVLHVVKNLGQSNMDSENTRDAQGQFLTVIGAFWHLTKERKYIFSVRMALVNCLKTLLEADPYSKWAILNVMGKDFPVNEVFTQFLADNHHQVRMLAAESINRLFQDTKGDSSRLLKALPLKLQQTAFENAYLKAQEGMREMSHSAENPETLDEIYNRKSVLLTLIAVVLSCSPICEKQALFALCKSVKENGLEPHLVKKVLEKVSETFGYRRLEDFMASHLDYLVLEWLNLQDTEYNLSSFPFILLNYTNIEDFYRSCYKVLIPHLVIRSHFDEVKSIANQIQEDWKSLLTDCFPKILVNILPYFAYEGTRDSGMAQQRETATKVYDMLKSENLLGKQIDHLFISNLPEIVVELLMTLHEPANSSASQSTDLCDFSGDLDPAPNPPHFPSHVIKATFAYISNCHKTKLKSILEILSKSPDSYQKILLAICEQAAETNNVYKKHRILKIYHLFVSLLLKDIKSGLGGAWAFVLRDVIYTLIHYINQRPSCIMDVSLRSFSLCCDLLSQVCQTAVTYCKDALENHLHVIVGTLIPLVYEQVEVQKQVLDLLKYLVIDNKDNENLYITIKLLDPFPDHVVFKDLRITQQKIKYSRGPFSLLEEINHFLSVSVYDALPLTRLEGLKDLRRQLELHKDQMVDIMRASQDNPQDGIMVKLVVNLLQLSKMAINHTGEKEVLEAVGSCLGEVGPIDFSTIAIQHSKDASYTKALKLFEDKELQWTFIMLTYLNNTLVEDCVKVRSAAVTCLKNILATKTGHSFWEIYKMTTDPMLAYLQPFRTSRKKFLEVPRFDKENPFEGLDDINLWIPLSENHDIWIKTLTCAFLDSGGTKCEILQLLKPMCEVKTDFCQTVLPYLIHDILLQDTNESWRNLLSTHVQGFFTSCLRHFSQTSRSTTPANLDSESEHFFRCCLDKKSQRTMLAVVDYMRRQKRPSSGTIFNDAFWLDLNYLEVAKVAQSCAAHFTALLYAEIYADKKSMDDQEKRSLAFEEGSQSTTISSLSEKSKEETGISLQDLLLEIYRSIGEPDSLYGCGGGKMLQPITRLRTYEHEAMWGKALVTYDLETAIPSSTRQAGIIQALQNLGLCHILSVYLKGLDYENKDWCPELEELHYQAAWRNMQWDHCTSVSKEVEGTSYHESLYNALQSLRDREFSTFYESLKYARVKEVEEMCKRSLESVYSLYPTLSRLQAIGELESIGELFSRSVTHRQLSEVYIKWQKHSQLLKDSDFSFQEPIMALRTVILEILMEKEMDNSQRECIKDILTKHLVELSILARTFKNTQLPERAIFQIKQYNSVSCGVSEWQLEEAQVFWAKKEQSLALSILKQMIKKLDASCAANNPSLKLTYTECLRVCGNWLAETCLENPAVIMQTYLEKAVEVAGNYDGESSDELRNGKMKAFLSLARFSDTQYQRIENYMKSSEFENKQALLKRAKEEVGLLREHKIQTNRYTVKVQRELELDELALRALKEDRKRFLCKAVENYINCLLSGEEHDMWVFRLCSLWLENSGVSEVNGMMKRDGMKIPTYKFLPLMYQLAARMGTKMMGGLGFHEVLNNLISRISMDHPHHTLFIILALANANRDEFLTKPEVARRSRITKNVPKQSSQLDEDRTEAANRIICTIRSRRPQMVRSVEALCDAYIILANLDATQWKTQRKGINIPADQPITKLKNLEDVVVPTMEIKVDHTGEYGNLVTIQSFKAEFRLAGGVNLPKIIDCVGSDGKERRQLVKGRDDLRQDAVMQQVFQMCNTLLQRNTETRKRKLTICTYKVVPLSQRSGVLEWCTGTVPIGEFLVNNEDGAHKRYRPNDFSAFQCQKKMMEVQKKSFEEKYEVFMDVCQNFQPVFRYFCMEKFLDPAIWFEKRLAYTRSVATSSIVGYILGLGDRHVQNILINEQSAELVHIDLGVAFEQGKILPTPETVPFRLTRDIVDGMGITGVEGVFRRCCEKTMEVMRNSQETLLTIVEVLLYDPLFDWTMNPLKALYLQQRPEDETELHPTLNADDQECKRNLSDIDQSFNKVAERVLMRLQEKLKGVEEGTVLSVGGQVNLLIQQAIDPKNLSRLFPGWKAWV

CLH [1] [mL/min/g]	Activity [2] [%]	Activity [3] [%]	half-life at 1 µM [4] [min]	IC50 [5] [nM]	Activity [6] [%]	SMILES	inhibition at 0.01 µM (HCT-116) [%]
45	22	–	51	3	120	COc1ccc(NC(=O)N(C)c2cnc3ccc(-c4ccc(OCCCN(C)C)nc4)cc3n2)cc1	-0.75
84	12	–	16	3	102	CCCNC(=O)N(C)c1cnc2ccc(-c3ccc(OCCCN(C)C)nc3)cc2n1	77.4
19	37	–	73	8	101	CN(C)CCCOc1ccc(-c2ccc3ncc(N(C)C(=O)N[C@]45C[C@@H]6C[C@H](C[C@@H](C6)C4)C5)nc3c2)cn1	-3.67
19	106	71	90	–	–	CC(C)NC(=O)N(C)c1cnc2ccc(-c3ccc(OCCCN4CCCC4=O)nc3)cc2n1	33.7
185	–	-2	8	–	94	CN(C)CCCOc1ccc(-c2ccc3ncc(NC(=O)NC(C)(C)C)nc3c2)cn1	–
93	8	–	19	2	94	CC1CCC(NC(=O)N(C)c2cnc3ccc(-c4ccc(OCCCN(C)C)nc4)cc3n2)CC1 (stereo unspecified)	76.2
127	33	–	11	6	104	CCNC(=O)N(C)c1cnc2ccc(-c3ccc(OCCCN(C)C)nc3)cc2n1	57.8
–	37	–	–	–	111	CN(C)CCCOc1ccc(-c2ccc3ncc(N(C)C(=O)Nc4ccc(Cl)cc4)nc3c2)cn1	11.7
120	–	-4	12	–	99	CCCNC(=O)Nc1cnc2ccc(-c3ccc(OCCCN(C)C)nc3)cc2n1	–
–	–	33	–	–	–	CC(C)CCCOc1ccc(-c2ccc3ncc(N(C)C(=O)NC(C)C)nc3c2)cn1	–
–	39	–	–	–	109	CN(C)CCCOc1ccc(-c2ccc3ncc(N(C)C(=O)Nc4cccc(C(F)(F)F)c4)nc3c2)cn1	-11.9
60	66	-1	35	26	–	CC(C)NC(=O)N(C)c1cnc2ccc(-c3ccc(OCCCCN(C)C)nc3)cc2n1	20.2
94	–	-4	15	–	98	CC(C)NC(=O)Nc1cnc2ccc(-c3ccc(OCCCN(C)C)nc3)cc2n1	–
37	73	-2	46	30	–	CC(C)NC(=O)N(C)c1cnc2ccc(-c3ccc(OCCN(C)C)nc3)cc2n1	-0.98
151	–	-3	9	–	101	C=CCNC(=O)Nc1cnc2ccc(-c3ccc(OCCCN(C)C)nc3)cc2n1	–
144	–	-5	10	–	98	CN(C)CCCOc1ccc(-c2ccc3ncc(NC(=O)NC4CCCC4)nc3c2)cn1	–
100	22	–	14	13	98	CN(C)CCCOc1ccc(-c2ccc3ncc(N(C)C(=O)NC(C)(C)C)nc3c2)cn1	44.7
–	103	43	–	–	–	COCCCOc1ccc(-c2ccc3ncc(N(C)C(=O)NC(C)C)nc3c2)cn1	-24.2

Further lines, the molecule ahead of its results:

SMILES	CLH [1] [mL/min/g]	Activity [2] [%]	Activity [3] [%]	half-life at 1 µM [4] [min]	IC50 [5] [nM]	Activity [6] [%]	inhibition at 0.01 µM (HCT-116) [%]
CC(C)NC(=O)N(C)c1cnc2ccc(-c3ccc(OC(C)CN(C)C)nc3)cc2n1 (stereo unspecified)	43	94	4	55	–	–	14.7
CC(C)NC(=O)N(C)c1cnc2ccc(-c3ccc(OCCN4CCCCC4)nc3)cc2n1	47	86	4	38	–	–	24
CC(C)NC(=O)N(C)c1cnc2ccc(-c3ccc(OCC4CCN(C)C4)nc3)cc2n1 (stereo unspecified)	40	72	1	50	31	–	32.9
Cc1cc(-c2ccc3ncc(N(C)C(=O)NC(C)C)nc3c2)cnc1OCCCN1CCCCC1	–	107	29	–	–	–	-28.4
CC(C)NC(=O)N(C)c1cnc2ccc(-c3ccc(OCCN4CCCC4)nc3)cc2n1	–	76	1	–	–	–	25
CC(C)NC(=O)N(C)c1cnc2ccc(-c3ccnc(OCCCN4CCCCC4)c3)cc2n1	–	97	10	–	–	–	32.2
Cc1cc(OCCCN2CCCCC2)ncc1-c1ccc2ncc(N(C)C(=O)NC(C)C)nc2c1	–	96	22	–	–	–	-19.8
CC(C)NC(=O)N(C)c1cnc2ccc(-c3ccc(OC4CCC(N(C)C)CC4)nc3)cc2n1 (stereo unspecified)	–	108	54	–	–	–	11.3
CC(C)NC(=O)N(C)c1cnc2ccc(-c3ccc(OC4CCN(C)CC4)nc3)cc2n1	–	100	25	–	–	–	-7.74
CC(C)NC(=O)N(C)c1cnc2ccc(-c3ccc(OCCCN4CCCCC4)nc3C#N)cc2n1	5.1	26	-4	277	16	–	14
CC(C)NC(=O)N(C)c1cnc2ccc(-c3ccc(OCC4CCCN(C)C4)nc3)cc2n1 (stereo unspecified)	36	43	0	55	22	–	-8.09
CC(C)NC(=O)N(C)c1cnc2ccc(-c3ccc(OCCC4CCCN4C)nc3)cc2n1 (stereo unspecified)	51	43	-3	48	10	–	36.5
CC(C)NC(=O)N(C)c1cnc2ccc(-c3cnc(OCCCN4CCCCC4)c(C(F)(F)F)c3)cc2n1	–	90	10	–	–	–	-13.6
CC(C)NC(=O)N(C)c1cnc2ccc(-c3ccc(OCCN4CCN(C)CC4)nc3)cc2n1	–	97	22	–	–	–	22.8
CC(C)NC(=O)N(C)c1cnc2ccc(-c3ccc(OCCN4CCOCC4)nc3)cc2n1	–	94	13	–	–	–	16.9
CC(C)NC(=O)N(C)c1cnc2ccc(-c3cnc(OCCCN4CCCCC4)c(F)c3)cc2n1	–	94	6	–	–	–	-3.96
CC(C)NC(=O)N(C)c1cnc2ccc(-c3cnc(OCCCN4CCCCC4)cc3F)cc2n1	–	29	-3	–	5	–	27.4
